Experimental data taken from patent US20260007674A1, “Novel Chemotypes for Treating Parasitic Diseases and Methods of Use” (The Medical College of Wisconsin, Inc., priority 2022, published 2026).
Entries after “also recorded” stand apart in the source; their conditions may differ.

Legend:
S. mansoni [1] = assay: Murine model of schistosomiasis, worm burden; format: in vivo, mice; details: 50 mg/kg intraperitoneal 1× daily for 3 days, FIG. 16; for worm burden: Female Swiss Webster mice, 7 weeks post-infection, recovery four days after first treatment
Experimental: (§1) All animal experiments followed ethical regulations approved by the MCW IACUC committee. At 7 weeks post-infection, mice were randomly sorted into 4 groups of 13 mice. One group was left untreated as a control. A second group was treated with vehicle (a mixture of DMSO/PEG400/H2O). A third group was treated with praziquantel (50 mg/kg, intraperitoneal, 1× daily) for 3 days in a row. In addition, a fourth group was treated with BZQ/S55 in the same fashion as praziquantel. Four days after the first treatment, the mice were euthanized, and the mesenteric vasculature was dissected in the usual fashion to recover schistosomes. The worm burden from each mouse was individually plotted (FIG. 16). There was no significant difference between untreated mice and mice treated with vehicle, confirming that the vehicle the drugs were dosed in had no effect on worm burden.

S. mansoni [2] = assay: Adult schistosome movement assay ex vivo (contraction and paralysis); format: cell-based, Schistosoma mansoni
Experimental: It was observed that N-amidoquinazolinones contract S. mansoni in a manner similar to the channel activator (and standard of treatment) praziquantel. Adult schistosomes were harvested from the mesenteric vasculature of female Swiss Webster mice previously infected (˜49 days earlier). Harvested schistosomes were washed in RPMI 1640 supplemented with 5% heat inactivated FBS, HEPES, and penicillin-streptomycin. After isolation, worms were incubated overnight in vented petri dishes. Movement assays were performed using male and female worms in six well dishes (˜5 individual worms/3 ml media per well). Schistosomes were treated with a molecule such as compound 4, and video recordings of worm motility were captured using a stereomicroscope coupled to a CCD camera. […] It was also observed that 2-amidoacrylates or 2-amidoacrylamides contract S. mansoni in a manner similar to the channel activator (and standard of treatment) praziquantel. The worm mobility assay performed in FIG. 13 is same as that performed in FIG. 3. Briefly, adult schistosomes were harvested from the mesenteric vasculature of female Swiss Webster mice previously infected (˜49 days earlier). Harvested schistosomes were washed in RPMI 1640 supplemented with 5% heat inactivated FBS, HEPES, and penicillin-streptomycin. After isolation, worms were incubated overnight in vented petri dishes. […]

S. mansoni [3] = assay: Electron microscopy of tegument of treated S. mansoni; format: cell-based, Schistosoma mansoni; details: FIG. 17H, 17I
Fasciola hepatica = assay: Ex vivo treatment of immature and adult F. hepatica (contraction, motility, viability); format: cell-based
Experimental: Briefly, Male Wistar rats served as the final host to obtain immature and adult stages of F. hepatica after infection with metacercariae from an Italian strain of F. hepatica. Immature flukes were collected from livers 4 weeks post-infection. Adult flukes were collected from bile ducts at 12 weeks post-infection. Worms were kept for 1 h in normal saline to allow clearance of gut contents and then used for experiments. In vitro experiments were performed utilizing a similar procedure as previously reported. Excised worms were treated with different concentrations of praziquantel, triclabendazole, BZQ/S55, S5, and S69, or DMSO as a negative control. The flukes were incubated at 37° C. in a 5% CO2 atmosphere for 72 h, and inhibitor-induced effects on worm viability were assessed using a stereomicroscope at 10× magnification. Worm motility was assessed using the following scores: 3 (normal motility), 2 (reduced motility), 1 (minimal and sporadic movements), and 0 (no movement even upon mechanical stimulation with forceps; considered dead). Representative results from these studies are shown FIGS. 17A-L.

F. hepatica = assay: Electron microscopy of tegument of treated F. hepatica; format: cell-based, Fasciola hepatica; details: FIGS. 17K and 17L
Excerpt: FIGS. 17A-L show representative BZQ/S55 ex vivo activities on Fasciola hepatica adults and immature worms.

[4] = Toxicity observation in treated mice of the schistosomiasis model; format: in vivo; details: 50 mg/kg intraperitoneal 1× daily for 3 days
Experimental: as §1

## O=C(C1CCCCC1)N1CC(=O)N2CCc3ccccc3C2C1 (stereo not drawn) [Praziquantel, praziquantel, reference compound]
S. mansoni [1]
  worm burden: significant reduction in worm burden
S. mansoni [2]; Praziquantel 500 nM, FIG. 17A
  effect on Schistosomes: rapid, spastic paralysis
S. mansoni [3]
  tegument of S. mansoni in electron microscopy image: tegument was destroyed
Fasciola hepatica; praziquantel 50 μM, FIG. 17B
  effect on Fasciola hepatica: Neither treatment has an effect

## O=C(Nn1c(-c2cccc(Cl)c2)nc2ccccc2c1=O)c1ccccc1 [BZQ/S55, N-(2-(3-chlorophenyl)-4-oxoquinazolin-3(4H)-yl)benzamide]
S. mansoni [1]
  efficacy compared with praziquantel, the standard of treatment: as effective as praziquantel
  worm burden: significant reduction in worm burden
S. mansoni [2]; treated with BZQ/S55, FIG. 17C
  effect on Schistosomes: mimics praziquantel on schistosomes; also recorded: Rapid, sustained contraction and paralysis
F. hepatica
  tegument of F. hepatica in electron microscopy image: notable tegument damage
[4]
  toxicity: no toxicity was noticed
S. mansoni [3]
  tegument of S. mansoni in electron microscopy image: tegument was destroyed
Fasciola hepatica; immature (4 weeks post-infection) and adult (12 weeks) flukes from rats
  ex vivo activity on Fasciola hepatica adults and immature worms: active ex vivo
Fasciola hepatica; treated with BZQ/S55, FIG. 17C
  effect on Fasciola hepatica: Rapid, sustained contraction and paralysis
